According to patent US11242327B2, “Analgesic compounds” (RECURIUM IP HOLDINGS, LLC, priority 2017, dated 2022):

Tested on: male Sprague-Dawley rats
Test: Formalin Paw Test, rat, oral
Assay type: in vivo
Settings: 30 mg/kg, early/acute phase (0-10 minutes)
Experimental: One test compound or the vehicle was administered to each rat or mouse in each test group (8 rats or mice per group). Non-fasted male Sprague-Dawley rats weighing 200-225 g or non-fasted male ICR mice weighing 23±3 g were used. […] Responses were measured every 5 minutes after the formalin injection for 35 minutes. The results in Table 2 are for oral administration in rat and the results in Table 3 are for intraperitoneal administration in mouse. In Tables 2 and 3, 'A' designates <70 seconds of paw licking, 'B' designates >70 and <165 seconds of paw licking, and 'C' designates >165 seconds of paw licking.

Row | Structure (SMILES) | Early Phase, seconds of paw licking
1 | Cl.NC12CC(c3nccc(C(F)(F)F)n3)(C1)C2 [Compound 12, 3-(4-(Trifluoromethyl)pyrimidin-2-yl)bicyclo[1.1.1]pentan-1-amine hydrochloride] | A (<70 seconds of paw licking)
2 | CC(C)=C(F)C12CC(N)(C1)C2.Cl [Compound 21, 3-(1-fluoro-2-methylprop-1-en-1-yl)bicyclo[1.1.1]pentan-1-amine hydrochloride] | A (<70 seconds of paw licking)
3 | Cl.NC12CC(c3nc4cc(Cl)ccc4o3)(C1)C2 [Compound 16, 3-(5-chlorobenzo[d]oxazol-2-yl)bicyclo[1.1.1]pentan-1-amine hydrochloride] | A (<70 seconds of paw licking)
4 | COc1cccc(C23CC(N)(C2)C3)c1.Cl [Compound 18, 3-(3-Methoxyphenyl)bicyclo[1.1.1]pentan-1-amine hydrochloride] | A (<70 seconds of paw licking)
5 | Cl.NC12CC(c3cccc(C(F)(F)F)c3)(C1)C2 [Compound 5] | A (<70 seconds of paw licking)
6 | Cl.NC12CC(c3ccnc(C(F)(F)F)n3)(C1)C2 [Compound 11, 3-(2-(Trifluoromethyl)pyrimidin-4-yl)bicyclo[1.1.1]pentan-1-amine hydrochloride] | A (<70 seconds of paw licking)
7 | Cl.NC12CC(c3nc4cc(C(F)(F)F)ccc4o3)(C1)C2 [Compound 15, 3-(5-(Trifluoromethyl)benzo[d]oxazol-2-yl)bicyclo[1.1.1]pentan-1-amine hydrochloride] | A (<70 seconds of paw licking)
8 | Cl.NC12CC(c3nc4cc(C(F)(F)F)ccc4s3)(C1)C2 [Compound 14, 3-(5-(trifluoromethyl)benzo[d]thiazol-2-yl)bicyclo[1.1.1]pentan-1-amine hydrochloride] | A (<70 seconds of paw licking)
9 | Cl.OCCNC12CC(C(F)(F)F)(C1)C2 [Compound 9, 2-((3-(Trifluoromethyl)bicyclo[1.1.1]pentan-1-yl)amino)ethan-1-ol hydrochloride] | A (<70 seconds of paw licking)
10 | Cl.NC12CC(c3ccc(Cl)cc3)(C1)C2 [Compound 10, 3-(4-Chlorophenyl)bicyclo[1.1.1]pentan-1-amine hydrochloride] | A (<70 seconds of paw licking)
11 | COc1ccc(C23CC(N)(C2)C3)cc1.Cl [Compound 4, 3-(4-Methoxyphenyl)bicyclo[1.1.1]pentan-1-amine hydrochloride] | A (<70 seconds of paw licking)
12 | CCNC12CC(C(F)(F)F)(C1)C2.Cl [Compound 8, N-Ethyl-3-(trifluoromethyl)bicyclo[1.1.1]pentan-1-amine hydrochloride] | A (<70 seconds of paw licking)
13 | Cl.NC12CC(c3nc4cc(F)ccc4[nH]3)(C1)C2 [Compound 17, 3-(5-fluoro-1H-benzo[d]imidazol-2-yl)bicyclo[1.1.1]pentan-1-amine hydrochloride] | A (<70 seconds of paw licking)
14 | CC(F)(F)C12CC(N)(C1)C2.Cl [Compound 19, 3-(1,1-Difluoroethyl)bicyclo[1.1.1]pentan-1-amine hydrochloride] | A (<70 seconds of paw licking)
15 | Cl.NC12CC(c3ccc(C(F)(F)F)cc3)(C1)C2 [Compound 3, 3-(4-(trifluoromethyl)phenyl)bicyclo[1.1.1]pentan-1-amine hydrochloride] | A (<70 seconds of paw licking)
16 | CC(C)C(F)(F)C12CC(N)(C1)C2.Cl [Compound 20, 3-(1,1-Difluoro-2-methylpropyl)bicyclo[1.1.1]pentan-1-amine hydrochloride] | A (<70 seconds of paw licking)
17 | Cl.NC12CC(c3ccccc3)(C1)C2 [Compound 22, 3-Phenylbicyclo[1.1.1]pentan-1-amine hydrochloride] | A (<70 seconds of paw licking)

Same assay, conditions: 30 mg/kg, late/tonic phase (10-35 minutes)

Row | Structure (SMILES) | Late Phase, seconds of paw licking
18 | Cl.NC12CC(c3nccc(C(F)(F)F)n3)(C1)C2 [Compound 12, 3-(4-(Trifluoromethyl)pyrimidin-2-yl)bicyclo[1.1.1]pentan-1-amine hydrochloride] | C (>165 seconds of paw licking)
19 | CC(C)=C(F)C12CC(N)(C1)C2.Cl [Compound 21, 3-(1-fluoro-2-methylprop-1-en-1-yl)bicyclo[1.1.1]pentan-1-amine hydrochloride] | C (>165 seconds of paw licking)
20 | Cl.NC12CC(c3nc4cc(Cl)ccc4o3)(C1)C2 [Compound 16, 3-(5-chlorobenzo[d]oxazol-2-yl)bicyclo[1.1.1]pentan-1-amine hydrochloride] | C (>165 seconds of paw licking)
21 | COc1cccc(C23CC(N)(C2)C3)c1.Cl [Compound 18, 3-(3-Methoxyphenyl)bicyclo[1.1.1]pentan-1-amine hydrochloride] | B (>70 and <165 seconds of paw licking)
22 | Cl.NC12CC(c3cccc(C(F)(F)F)c3)(C1)C2 [Compound 5] | B (>70 and <165 seconds of paw licking)
23 | Cl.NC12CC(c3ccnc(C(F)(F)F)n3)(C1)C2 [Compound 11, 3-(2-(Trifluoromethyl)pyrimidin-4-yl)bicyclo[1.1.1]pentan-1-amine hydrochloride] | C (>165 seconds of paw licking)
24 | Cl.NC12CC(c3nc4cc(C(F)(F)F)ccc4o3)(C1)C2 [Compound 15, 3-(5-(Trifluoromethyl)benzo[d]oxazol-2-yl)bicyclo[1.1.1]pentan-1-amine hydrochloride] | C (>165 seconds of paw licking)
25 | Cl.NC12CC(c3nc4cc(C(F)(F)F)ccc4s3)(C1)C2 [Compound 14, 3-(5-(trifluoromethyl)benzo[d]thiazol-2-yl)bicyclo[1.1.1]pentan-1-amine hydrochloride] | C (>165 seconds of paw licking)
26 | Cl.OCCNC12CC(C(F)(F)F)(C1)C2 [Compound 9, 2-((3-(Trifluoromethyl)bicyclo[1.1.1]pentan-1-yl)amino)ethan-1-ol hydrochloride] | C (>165 seconds of paw licking)
27 | Cl.NC12CC(c3ccc(Cl)cc3)(C1)C2 [Compound 10, 3-(4-Chlorophenyl)bicyclo[1.1.1]pentan-1-amine hydrochloride] | A (<70 seconds of paw licking)
28 | COc1ccc(C23CC(N)(C2)C3)cc1.Cl [Compound 4, 3-(4-Methoxyphenyl)bicyclo[1.1.1]pentan-1-amine hydrochloride] | A (<70 seconds of paw licking)
29 | CCNC12CC(C(F)(F)F)(C1)C2.Cl [Compound 8, N-Ethyl-3-(trifluoromethyl)bicyclo[1.1.1]pentan-1-amine hydrochloride] | C (>165 seconds of paw licking)
30 | Cl.NC12CC(c3nc4cc(F)ccc4[nH]3)(C1)C2 [Compound 17, 3-(5-fluoro-1H-benzo[d]imidazol-2-yl)bicyclo[1.1.1]pentan-1-amine hydrochloride] | C (>165 seconds of paw licking)
31 | CC(F)(F)C12CC(N)(C1)C2.Cl [Compound 19, 3-(1,1-Difluoroethyl)bicyclo[1.1.1]pentan-1-amine hydrochloride] | B (>70 and <165 seconds of paw licking)
32 | Cl.NC12CC(c3ccc(C(F)(F)F)cc3)(C1)C2 [Compound 3, 3-(4-(trifluoromethyl)phenyl)bicyclo[1.1.1]pentan-1-amine hydrochloride] | A (<70 seconds of paw licking)
33 | CC(C)C(F)(F)C12CC(N)(C1)C2.Cl [Compound 20, 3-(1,1-Difluoro-2-methylpropyl)bicyclo[1.1.1]pentan-1-amine hydrochloride] | C (>165 seconds of paw licking)
34 | Cl.NC12CC(c3ccccc3)(C1)C2 [Compound 22, 3-Phenylbicyclo[1.1.1]pentan-1-amine hydrochloride] | B (>70 and <165 seconds of paw licking)

Tested on: male Sprague-Dawley rats
Test: Osteoarthritis Pain Test (MIA, mechanical hyperalgesia)
Assay type: in vivo
Settings: rat, oral once daily, 30 mg/kg, Day 0, 1 h post-dosing
Experimental: Osteoarthritis pain was induced in non-fasted male Sprague-Dawley rats weighing 150-250 g by injecting 2 mg of monosodium iodoacetate (MIA) into the left knee joint. Mechanical hyperalgesia was measured using a digital Randall-Selitto device (dRS; IITC Life Sciences©; Woodland Hills, Calif.). Animals were allowed to acclimate to the testing room for a minimum of 15 minutes before testing. Animals were placed in a restraint sling that suspended the animal, leaving the hind limbs available for testing. The stimulus was applied to the knee joint by a blunt tip and pressure was applied gradually over approximately 10 seconds. Joint compression threshold values were recorded at the first observed nocifensive behavior (vocalization, struggle, or withdrawal). One reading per joint was taken at each time point, and a maximum stimulus cutoff of 500 grams was used to prevent injury to the animal. Mechanical hyperalgesia was assessed prior to MIA injection, and again 14 days later. After 14 days, test or control articles were administered once daily for 7 days with mechanical hyperalgesia assessed prior to dosing, 1, 2, and 4 hours post-dosing on days 0, 3, and 6. Test compounds were administered orally at concentrations of 3, 10, 30 or 100 mg/kg and celecoxib was administered orally at a concentration of 30 mg/kg. The control group received the vehicle (sterile water). After day 0, groups receiving the 100 mg/kg dose were reduced to a dose of 3 mg/kg. In Table 5, ‘A’ designates ≥375 grams of joint compression, ‘B’ designates ≥325 and <375 grams of joint compression, and ‘C’ designates <325 grams of joint compression.
The results provided in Table 5 are for oral administration in rats.

Row | Structure (SMILES) | joint compression threshold, Day 0, 1 h
35 | Cc1ccc(-c2cc(C(F)(F)F)nn2-c2ccc(S(N)(=O)=O)cc2)cc1 [Celecoxib, reference compound] | B (≥325 and <375 grams of joint compression)

Same assay, conditions: rat, oral once daily, 30 mg/kg, Day 0, 2 h post-dosing

Row | Structure (SMILES) | joint compression threshold, Day 0, 2 h
36 | Cc1ccc(-c2cc(C(F)(F)F)nn2-c2ccc(S(N)(=O)=O)cc2)cc1 [Celecoxib, reference compound] | A (≥375 grams of joint compression)

Same assay, conditions: rat, oral once daily, 30 mg/kg, Day 0, 4 h post-dosing

Row | Structure (SMILES) | joint compression threshold, Day 0, 4 h
37 | Cc1ccc(-c2cc(C(F)(F)F)nn2-c2ccc(S(N)(=O)=O)cc2)cc1 [Celecoxib, reference compound] | B (≥325 and <375 grams of joint compression)

Same assay, conditions: rat, oral once daily, 30 mg/kg, Day 3, 1 h post-dosing

Row | Structure (SMILES) | joint compression threshold, Day 3, 1 h
38 | Cc1ccc(-c2cc(C(F)(F)F)nn2-c2ccc(S(N)(=O)=O)cc2)cc1 [Celecoxib, reference compound] | C (<325 grams of joint compression)

Same assay, conditions: rat, oral once daily, 30 mg/kg, Day 3, 2 h post-dosing

Row | Structure (SMILES) | joint compression threshold, Day 3, 2 h
39 | Cc1ccc(-c2cc(C(F)(F)F)nn2-c2ccc(S(N)(=O)=O)cc2)cc1 [Celecoxib, reference compound] | A (≥375 grams of joint compression)

Same assay, conditions: rat, oral once daily, 30 mg/kg, Day 3, 4 h post-dosing

Row | Structure (SMILES) | joint compression threshold, Day 3, 4 h
40 | Cc1ccc(-c2cc(C(F)(F)F)nn2-c2ccc(S(N)(=O)=O)cc2)cc1 [Celecoxib, reference compound] | A (≥375 grams of joint compression)

Same assay, conditions: rat, oral once daily, 30 mg/kg, Day 6, 1 h post-dosing

Row | Structure (SMILES) | joint compression threshold, Day 6, 1 h
41 | Cc1ccc(-c2cc(C(F)(F)F)nn2-c2ccc(S(N)(=O)=O)cc2)cc1 [Celecoxib, reference compound] | B (≥325 and <375 grams of joint compression)

Same assay, conditions: rat, oral once daily, 30 mg/kg, Day 6, 2 h post-dosing

Row | Structure (SMILES) | joint compression threshold, Day 6, 2 h
42 | Cc1ccc(-c2cc(C(F)(F)F)nn2-c2ccc(S(N)(=O)=O)cc2)cc1 [Celecoxib, reference compound] | A (≥375 grams of joint compression)

Same assay, conditions: rat, oral once daily, 30 mg/kg, Day 6, 4 h post-dosing

Row | Structure (SMILES) | joint compression threshold, Day 6, 4 h
43 | Cc1ccc(-c2cc(C(F)(F)F)nn2-c2ccc(S(N)(=O)=O)cc2)cc1 [Celecoxib, reference compound] | A (≥375 grams of joint compression)

Tested on: male Sprague-Dawley rats
Test: UVB Inflammatory Pain Test (thermal hyperalgesia)
Assay type: in vivo
Settings: rat, oral, 30 mg/kg, 1 h after dosing
Experimental: UVB irradiation to the surface of the hind paw was used to induce cutaneous inflammatory pain in non-fasted male Sprague-Dawley rats weighing 175-300 g. On Day −3, animals were restrained and the plantar surface of the left hind paw was exposed to 350 mJoules/cm^2 of UVB irradiation using a narrow band UVB light source (Daavlin®, Bryan, Ohio). Following UVB irradiation, animals were returned to their home cage. Thermal hyperalgesia was assessed prior to dosing and approximately 1, 2, and 4 hours after dosing on Day 0 using a radiant heat plantar test apparatus (IITC Life Sciences©; Woodland Hills, Calif.). Animals were placed in individual acrylic chambers on a glass platform warmed to 30±2° C. and allowed to acclimate to their surroundings for a minimum of 15 minutes before testing. The stimulus was presented to the plantar surface and the timer was activated. The stimulus intensity was set such that pre-injury paw withdrawal latencies were approximately 12-18 seconds. Paw withdrawal latency values were recorded at the first observed nocifensive behavior (paw withdrawal, flinching, biting and/or licking). Three paw withdrawal latencies were measured for each hind paw per time point. The mean of the 3 values was taken as the paw withdrawal latency for that time point. A maximum cutoff latency of 30 seconds was used to prevent injury to the animal. The mean and standard error of the mean (SEM) were determined for each paw for each treatment group at each time point. Test compounds were administered orally at concentrations of 3, 10, 30 or 100 mg/kg; celecoxib was administered orally at a concentration of 30 mg/kg; and acetaminophen was administered orally at a concentration of 300 mg/kg. The control group received the vehicle (sterile water). In Table 4, ‘A’ designates >8 seconds of paw withdrawal latency, ‘B’ designates >6 and <8 seconds of paw withdrawal latency, and ‘C’ designates <6 seconds of paw withdrawal latency.
The results provided in Table 4 are for oral administration in rats. […] Furthermore, while acetaminophen was dosed at 300 mg/kg, compounds of Formulae (Ie), (Ih) and (Ik), or a pharmaceutically acceptable salt of any of the foregoing, were dosed at 3 mg/kg, 10 mg/kg and 100 mg/kg.

Row | Structure (SMILES) | paw withdrawal latency, 1 h
44 | Cc1ccc(-c2cc(C(F)(F)F)nn2-c2ccc(S(N)(=O)=O)cc2)cc1 [Celecoxib, reference compound] | A (>8 seconds of paw withdrawal latency)

Same assay, conditions: rat, oral, 30 mg/kg, 2 h after dosing

Row | Structure (SMILES) | paw withdrawal latency, 2 h
45 | Cc1ccc(-c2cc(C(F)(F)F)nn2-c2ccc(S(N)(=O)=O)cc2)cc1 [Celecoxib, reference compound] | A (>8 seconds of paw withdrawal latency)

Same assay, conditions: rat, oral, 30 mg/kg, 4 h after dosing

Row | Structure (SMILES) | paw withdrawal latency, 4 h
46 | Cc1ccc(-c2cc(C(F)(F)F)nn2-c2ccc(S(N)(=O)=O)cc2)cc1 [Celecoxib, reference compound] | A (>8 seconds of paw withdrawal latency)
